In BindingDB's records for doi:10.1021/jm5001979 (Amgen, 2014):

Assay: Induction of GK translocation from nucleus to cytoplasm of mouse hepatocytes preincubated for 20 mins followed by glucose challenge measured after 40 mins by Hoechst 33342 staining-based assay

SMILES | EC50
Nc1ccc(S(=O)(=O)N2CCN(c3ncc(C(O)(C(F)(F)F)C(F)(F)F)cc3-c3cc[nH]n3)CC2)cn1 | 11.2 µM
Nc1ccc(S(=O)(=O)N2CCN(c3ncc(C(O)(C(F)(F)F)C(F)(F)F)cc3Br)CC2)cn1 | 5.37 µM
Nc1ccc(S(=O)(=O)N2CCN(c3ncc(C(O)(C(F)(F)F)C(F)(F)F)cc3C#CC3CC3)CC2)cn1 | 3.35 µM
Nc1ccc(S(=O)(=O)N2CCN(c3ncc(C(O)(C(F)(F)F)C(F)(F)F)cc3C#CCO)CC2)cn1 | 0.51 µM
COCC#Cc1cc(C(O)(C(F)(F)F)C(F)(F)F)cnc1N1CCN(S(=O)(=O)c2ccc(N)nc2)CC1 | 0.254 µM
CC(C)(O)C#Cc1cc(C(O)(C(F)(F)F)C(F)(F)F)cnc1N1CCN(S(=O)(=O)c2ccc(N)nc2)CC1 | 2.14 µM
Nc1ccc(S(=O)(=O)N2CCN(c3ncc(C(O)(C(F)(F)F)C(F)(F)F)cc3C#CCCO)CC2)cn1 | 2 µM
Nc1ccc(S(=O)(=O)N2CCN(c3ncc(C(O)(C(F)(F)F)C(F)(F)F)cc3-c3ccc4[nH]ncc4c3)CC2)cn1 | 2.63 µM
Nc1ccc(S(=O)(=O)N2CCN(c3ncc(C(O)(C(F)(F)F)C(F)(F)F)cc3-c3cc4ccccc4[nH]3)CC2)cn1 | 1.12 µM
Nc1ccc(S(=O)(=O)N2CCN(c3ncc(C(O)(C(F)(F)F)C(F)(F)F)cc3-c3cc4ccccc4s3)CC2)cn1 | 2.75 µM
Nc1ccc(S(=O)(=O)N2CCN(c3ccc(C(O)(C(F)(F)F)C(F)(F)F)cn3)CC2)cn1 | > 12.5 µM
Nc1ccc(S(=O)(=O)N2CCN(c3ncc(C(O)(C(F)(F)F)C(F)(F)F)cc3Cl)CC2)cn1 | 6.36 µM
CN1C(=O)Cc2cc(-c3cc(C(O)(C(F)(F)F)C(F)(F)F)cnc3N3CCN(S(=O)(=O)c4ccc(N)nc4)CC3)ccc21 | 0.234 µM
Nc1ccc(S(=O)(=O)N2CCN(c3ncc(C(O)(C(F)(F)F)C(F)(F)F)cc3-c3ccc4c(c3)CC(=O)N4)CC2)cn1 | 0.309 µM
Cc1nc2cc(-c3cc(C(O)(C(F)(F)F)C(F)(F)F)cnc3N3CCN(S(=O)(=O)c4ccc(N)nc4)CC3)ccc2o1 | 0.351 µM
Nc1ccc(S(=O)(=O)N2CCN(c3ncc(C(O)(C(F)(F)F)C(F)(F)F)cc3-c3ccc4ocnc4c3)CC2)cn1 | 0.416 µM
Nc1ccc(S(=O)(=O)N2CCN(c3ncc(C(O)(C(F)(F)F)C(F)(F)F)cc3-c3ccc4scnc4c3)CC2)cn1 | 1.15 µM
Nc1ccc(S(=O)(=O)N2CCN(c3ncc(C(O)(C(F)(F)F)C(F)(F)F)cc3-c3ccc4sccc4c3)CC2)cn1 | > 12.5 µM
COc1cncc(-c2cc(C(O)(C(F)(F)F)C(F)(F)F)cnc2N2CCN(S(=O)(=O)c3ccc(N)nc3)CC2)c1 | 1.4 µM
COc1ccc(-c2cc(C(O)(C(F)(F)F)C(F)(F)F)cnc2N2CCN(S(=O)(=O)c3ccc(N)nc3)CC2)cn1 | 1.4 µM

SMILES | EC50
Cc1ccc(-c2cc(C(O)(C(F)(F)F)C(F)(F)F)cnc2N2CCN(S(=O)(=O)c3ccc(N)nc3)CC2)cn1 | 4.68 µM
Cc1cncc(-c2cc(C(O)(C(F)(F)F)C(F)(F)F)cnc2N2CCN(S(=O)(=O)c3ccc(N)nc3)CC2)c1 | 0.794 µM
Nc1ccc(S(=O)(=O)N2CCN(c3ncc(C(O)(C(F)(F)F)C(F)(F)F)cc3-c3cncc(F)c3)CC2)cn1 | > 12.5 µM
Nc1ccc(S(=O)(=O)N2CCN(c3ncc(C(O)(C(F)(F)F)C(F)(F)F)cc3-c3cnccc3F)CC2)cn1 | 1.29 µM
Nc1ccc(S(=O)(=O)N2CCN(c3ncc(C(O)(C(F)(F)F)C(F)(F)F)cc3-c3ccncc3)CC2)cn1 | 0.933 µM
CS(=O)(=O)c1ccc(-c2cc(C(O)(C(F)(F)F)C(F)(F)F)cnc2N2CCN(S(=O)(=O)c3ccc(N)nc3)CC2)cc1 | 2.95 µM
NC(=O)c1cccc(-c2cc(C(O)(C(F)(F)F)C(F)(F)F)cnc2N2CCN(S(=O)(=O)c3ccc(N)nc3)CC2)c1 | 0.766 µM
Nc1ccc(S(=O)(=O)N2CCN(c3ncc(C(O)(C(F)(F)F)C(F)(F)F)cc3-c3ccccc3O)CC2)cn1 | 0.565 µM
Nc1ccc(S(=O)(=O)N2CCN(c3ncc(C(O)(C(F)(F)F)C(F)(F)F)cc3-c3ccc(F)cc3)CC2)cn1 | 1.38 µM
Nc1ccc(S(=O)(=O)N2CCN(c3ncc(C(O)(C(F)(F)F)C(F)(F)F)cc3-c3cccc(F)c3)CC2)cn1 | 2.8 µM
Nc1ccc(S(=O)(=O)N2CCN(c3ncc(C(O)(C(F)(F)F)C(F)(F)F)cc3-c3ccccc3F)CC2)cn1 | 0.803 µM
Nc1ccc(S(=O)(=O)N2CCN(c3ncc(C(O)(C(F)(F)F)C(F)(F)F)cc3-c3ccccc3)CC2)cn1 | 0.776 µM
Cc1csc(-c2cc(C(O)(C(F)(F)F)C(F)(F)F)cnc2N2CCN(S(=O)(=O)c3ccc(N)nc3)CC2)c1 | 1.19 µM
Nc1ccc(S(=O)(=O)N2CCN(c3ncc(C(O)(C(F)(F)F)C(F)(F)F)cc3-c3ccoc3)CC2)cn1 | 1.73 µM
Cc1c(-c2cc(C(O)(C(F)(F)F)C(F)(F)F)cnc2N2CCN(S(=O)(=O)c3ccc(N)nc3)CC2)cnn1C | 1.26 µM
CC(C)(C)n1cc(-c2cc(C(O)(C(F)(F)F)C(F)(F)F)cnc2N2CCN(S(=O)(=O)c3ccc(N)nc3)CC2)cn1 | 2.45 µM
CC(C)n1cc(-c2cc(C(O)(C(F)(F)F)C(F)(F)F)cnc2N2CCN(S(=O)(=O)c3ccc(N)nc3)CC2)cn1 | 1.08 µM
CCn1cc(-c2cc(C(O)(C(F)(F)F)C(F)(F)F)cnc2N2CCN(S(=O)(=O)c3ccc(N)nc3)CC2)cn1 | 0.081 µM
Cn1cc(-c2cc(C(O)(C(F)(F)F)C(F)(F)F)cnc2N2CCN(S(=O)(=O)c3ccc(N)nc3)CC2)cn1 | 0.052 µM
